Test results from patent US12331040B2 (Karyopharm Therapeutics Inc., priority 2013, dated 2025).

Legend:
[1] = system: CaOV3 cells; assay: MTT cell proliferation assay; format: cell-based; settings: Homo sapiens, Caov-3, 72-hour MTT
Description: (§1) The MTT cell proliferation assay was used to study the cytotoxic properties of the compounds. The assay was performed according to the method described by Roche Molecular Biochemicals, with minor modifications. The assay is based on the cleavage of the tetrazolium salt, MTT, in the presence of an electron-coupling reagent. The water-insoluble formazan salt produced must be solubilized in an additional step. Cells grown in a 96-well tissue culture plate were incubated with the MTT solution for approximately 4 hours. After this incubation period, a water-insoluble formazan dye formed. After solubilization, the formazan dye was quantitated using a scanning multi-well spectrophotometer (ELISA reader). […] The cells were seeded at 5,000-10,000 cells in each well of 96-well plate in 100 μL of fresh culture medium and were allowed to attach overnight. The stock solutions of the compounds were diluted in 100 μL cell culture medium to obtain eight concentrations of each test compound, ranging from 1 nM to 30 μM. […] All optical densities were measured at 490 nm using a Vmax Kinetic Microplate Reader (Molecular Devices). In most cases, the assay was performed in duplicate and the results were presented as a mean percent inhibition to the negative control±SE. The following formula was used to calculate the percent of inhibition: Inhibition (%)=(1−(ODo/OD))×100.
(§2) Compounds 504, 510, 525 and 585 were further tested against selected solid and hematological cancer cell lines and selected normal cell lines in a 72-hour MTT cell proliferation assay.

[2] = system: HPAC cells; assay: MTT cell proliferation assay; format: cell-based; settings: Homo sapiens, 72-hour MTT
Description: as §1, §2

[3] = system: HS-Sultan cells; assay: MTT cell proliferation assay; format: cell-based; settings: 72-hour MTT
Description: as §1, §2

[4] = system: MCF-10A cells; assay: MTT cell proliferation assay; format: cell-based; settings: Homo sapiens, 72-hour MTT
Description: as §1, §2

[5] = system: NCI-H2122 cells; assay: MTT cell proliferation assay; format: cell-based; settings: Homo sapiens, 72-hour MTT
Description: as §1, §2

[6] = system: OCIAML5 cells; assay: MTT cell proliferation assay; format: cell-based; settings: Homo sapiens, OCI-AML-5, 72-hour MTT
Description: as §1, §2

[7] = system: PATU-8902 cells; assay: MTT cell proliferation assay; format: cell-based; settings: 72-hour MTT
Description: as §1, §2

[8] = system: SNU-398 cells; assay: MTT cell proliferation assay; format: cell-based; settings: Homo sapiens, 72-hour MTT
Description: as §1, §2

[9] = system: U2OS cells; assay: Staining of β-catenin, cofilin and F-actin in fixed U2OS cells; format: cell-based, human; settings: 1 μM, 48 hours
Description: U2OS cells were grown on coverslips and treated with DMSO or 1 μM Compound 585 for 48 hours, at which time the cells were fixed and stained. The cells were labeled with phospho- or total β-catenin antibodies; phospho- or total cofilin antibodies; or ALEXA-FLUORO 488 phalloidin. Both phospho- and total β-catenin were reduced by treatment with Compound 585. Both phospho- and total cofilin were reduced by treatment with Compound 585. ALEXA-FLUORO 488 phalloidin was used to stain F-actin.

[10] = system: U2OS cells; assay: BrdU incorporation and cell cycle analysis by flow cytometry in U2OS cells; format: cell-based, human; settings: 1 μM, BrdU/7-AAD flow cytometry
Description: U2OS cells were treated with DMSO or 1 μM Compound 585 for one, two or three days. At each time point, cells were treated with 10 μM BrdU for 2 hours, and then collected by trypsinization. Cells were subsequently washed, fixed and stained for BrdU and total DNA (7-AAD). BrdU incorporation and cell cycle analysis was performed using flow cytometry on a BD Fortessa Analyzer. Data was then analyzed using FCS Express 4 software.

[11] = system: Z-138 xenografts; assay: Z-138 mantle cell lymphoma xenograft in SCID mice; format: in vivo; set-up: toxicity (side effects, weight loss): dose or concentration left out as unconfirmed
Description: The impact of Compound 585 on tumor growth was tested using a Z-138 mantle cell lymphoma cancer xenograft model in SCID mice. Z-138 (ATCC #CRL-3001) mantle cell lymphoma cells were obtained from ATCC. These cells were grown in IMEM medium supplemented with 10% horse serum, 1% penicillin and streptomycin, and 2 mM L-glutamine. Cells were sub-cultured by dilution at a ratio of 1:5 to 1:10. Z-138 cells were harvested by centrifugation and counted using a hemocytometer. Cells were resuspended in PBS at a 2×10^8 cells per mL. Cells were placed on ice and mixed with an equal volume of Matrigel (BD Biosciences CB-40234). This mixture was kept on ice and injected into the left flank of mice in a volume of 0.2 mL, equivalent to 2×10^7 cells per mouse. Forty (40) CB-17 SCID mice were inoculated subcutaneously in the left flank with 2×10^7 Z-138 cells. Treatment was initiated when the tumors reached a mean volume of 125.2 mm^3. Mice were allocated to five (5) groups of eight (8) mice such that mean tumor volume in each group was within the range of 106.5 to 138.8 mm^3. Mice were treated with vehicle, standard of care/positive control drug (cyclophosphamide), or Compound 585. […] Animal weights and conditions were recorded daily, and tumors were measured on Mondays, Wednesdays and Fridays.

[12] = system: Hep 3B xenografts; assay: Hep3B hepatocellular carcinoma xenograft in SCID mice; format: in vivo
Description: The effects of Compound 585 were evaluated on tumor growth using a Hep3B hepatocellular carcinoma xenograft model in SCID mice. Hep 3B (ATCC […]) hepatocellular carcinoma cells were obtained from ATCC. These cells were grown in DMEM medium supplemented with 10% fetal bovine serum and 1% penicillin and streptomycin. Cells were sub-cultured by dilution at a ratio of 1:4. Hep3B cells were harvested by centrifugation and counted using a hemocytometer. Cells were resuspended in PBS at a 5×10^7 cells per mL. Cells were placed on ice, then mixed with an equal volume of Matrigel™ (BD Biosciences CB-40234). This mixture was kept on ice and injected into the left flank of mice in a volume of 0.2 mL, equivalent to 5×10^6 cells per mouse. Thirty-two (32) SCID mice were inoculated subcutaneously in the left flank with 5×10^6 Hep 3B cells. Treatment was initiated when the tumors reached a mean volume of 103.7 mm3 (standard deviation±30 mm^3, range 17-183 mm^3). Mice were allocated to four (4) groups of eight (8) mice such that mean tumor volume in each group was within the range of 95 to 104 mm^3. Mice were treated with vehicle, standard of care control (doxorubicin), or Compound 585. With the exception of doxorubicin (which was given IP), all compounds were given by oral gavage. […] Animal weights and conditions were recorded daily, and tumors were measured on Mondays, Wednesdays and Fridays.

[13] = system: cancer cell lines; assay: 72-hour MTT cell proliferation assay, summary over the cancer cell lines tested; format: cell-based
Description: as §1, §2

## Nc1ccc(/C=C/C(=O)NCc2cc3cc(-c4ccc(C(=O)N5CCC(F)(F)CC5)cn4)cc(C(F)(F)F)c3o2)cn1 [Compound 585, (E)-3-(6-aminopyridin-3-yl)-N-((5-(5-(4,4-difluoropiperidine-1-carbonyl)pyridin-2-yl)-7-(trifluoromethyl)benzofuran-2-yl)methyl)acrylamide]
[1]
  IC50: 2.22 µM
[2]
  IC50: 0.38 µM
[3]
  IC50: 0.2 µM
[4]
  IC50: 0.14 µM
[5]
  IC50: 5.81 µM
[6]
  IC50: 0.05 µM
[7]
  IC50: 0.51 µM
[8]
  IC50: 4.42 µM
[9]
  stress fiber formation (F-actin, phalloidin): increase in stress fiber formation
[9]; antibody staining
  phospho- and total cofilin: reduced
  phospho- and total β-catenin: reduced
[10]
  cell cycle changes: Sub-G1 phase: started to appear around 48-72 hours
[10]; at 48-72 hours
  cell cycle changes: S phase and G2 phase: loss of S phase and increase in G2 phase
[11]; SCID mice, 10, 30, or 60 mg/kg PO daily
  mean tumor volume of Z-138 xenografts: tumor growth inhibition and even tumor regression
[11]; Z-138 xenograft model, minimal or no side effects or weight loss up to daily dose
  toxicity (side effects, weight loss): without major toxicity
[12]; Hep 3B xenograft model, minimal or no side effects or weight loss up to 200 mg/kg daily dose
  toxicity (side effects, weight loss): without major toxicity
[12]; SCID mice, 20 or 60 mg/kg PO daily
  mean tumor volume of Hep 3B xenografts: tumor growth inhibition
[13]; 30/33 hematological cancer cell lines
  share of the hematological cancer cell lines tested with an IC50 of less than 500 nM: 91%
[13]; 42/93 solid cancer cell lines
  share of the solid cancer cell lines tested with an IC50 of less than 500 nM: 45%
[13]; 91/126 cancer cell lines
  share of the cancer cell lines tested with an IC50 of less than 1 μM: 72%
